Experimental data from article PMC5218480 (PLoS ONE, 2017).

Tested on: MV-4-11 cells
Experiment: Gene expression microarray analysis (Affymetrix PrimeView) and GSEA
Format: cell-based, human
Set-up: RFU PODN (11730768_x_at) / Fold change /veh PODN (11730768_x_at) / RFU LINC00158 (11744669_a_at) / Fold change /veh LINC00158 (11744669_a_at) / RFU DUSP10 (11751237_a_at) / Fold change /veh DUSP10 (11751237_a_at) / RFU ID3 (11757404_x_at) / Fold change /veh ID3 (11757404_x_at) / RFU PLEKHG5 (11737974_s_at) / Fold change /veh PLEKHG5 (11737974_s_at) / RFU LRRC4B (11730491_at) / Fold change /veh LRRC4B (11730491_at) / RFU GIMAP4 (11747438_a_at) / Fold change /veh GIMAP4 (11747438_a_at) / RFU KRT8 (11758183_x_at) / Fold change /veh KRT8 (11758183_x_at) / RFU CNN1 (11734310_a_at) / Fold change /veh CNN1 (11734310_a_at) / RFU VPS37D (11726825_at) / Fold change /veh VPS37D (11726825_at) / RFU C10orf10 (11716522_x_at) / Fold change /veh C10orf10 (11716522_x_at) / RFU KIR2DL2 /// KIR2DL4 /// KIR2DL5A /// KIR2DL5B /// KIR2DS1 /// KIR2DS2 /// KIR2DS3 /// KIR2DS4 /// KIR3DL3 /// KIR3DL3 /// KIR3DS1 (11738374_at) / Fold change /veh KIR2DL2 /// KIR2DL4 /// KIR2DL5A /// KIR2DL5B /// KIR2DS1 /// KIR2DS2 /// KIR2DS3 /// KIR2DS4 /// KIR3DL3 /// KIR3DL3 /// KIR3DS1 (11738374_at) / RFU C1QL1 (11718748_at) / Fold change /veh C1QL1 (11718748_at) / RFU TMPRSS4 (11747572_a_at) / Fold change /veh TMPRSS4 (11747572_a_at) / RFU HAMP (11756126_x_at) / Fold change /veh HAMP (11756126_x_at) / RFU RNFT2 (11725882_a_at) / Fold change /veh RNFT2 (11725882_a_at) / RFU NR4A2 (11747474_a_at) / Fold change /veh NR4A2 (11747474_a_at) / RFU ABCC12 (11746883_a_at) / Fold change /veh ABCC12 (11746883_a_at) / RFU TMEM136 (11760407_x_at) / Fold change /veh TMEM136 (11760407_x_at) / RFU CLDN22 /// WWC2 (11732394_at) / Fold change /veh CLDN22 /// WWC2 (11732394_at) / RFU HLA-DPB1 (11760878_x_at) / Fold change /veh HLA-DPB1 (11760878_x_at) / RFU SPINT1 (11716480_a_at) / Fold change /veh SPINT1 (11716480_a_at) / RFU GAP43 (11754022_s_at) / Fold change /veh GAP43 (11754022_s_at) / RFU A4GNT (11735810_at) / Fold change /veh A4GNT (11735810_at) / RFU PRB3 (11715151_x_at) / Fold change /veh PRB3 (11715151_x_at) / RFU TUBB4B (11761932_at) / Fold change /veh TUBB4B (11761932_at) / RFU CAPN14 (11732068_a_at) / Fold change /veh CAPN14 (11732068_a_at) / RFU TMCC2 (11721928_a_at) / Fold change /veh TMCC2 (11721928_a_at) / RFU IRGQ (11745062_a_at) / Fold change /veh IRGQ (11745062_a_at) / RFU FAM174B (11720279_a_at) / Fold change /veh FAM174B (11720279_a_at) / RFU TMPRSS4 (11748680_a_at) / Fold change /veh TMPRSS4 (11748680_a_at) / RFU FAM212B (11763350_a_at) / Fold change /veh FAM212B (11763350_a_at) / RFU PLEKHG5 (11743358_a_at) / Fold change /veh PLEKHG5 (11743358_a_at) / RFU ZSCAN30 (11745921_a_at) / Fold change /veh ZSCAN30 (11745921_a_at) / RFU CMKLR1 (11741424_a_at) / Fold change /veh CMKLR1 (11741424_a_at) / RFU LOC101060620 /// MAPK8IP1 (11723275_at) / Fold change /veh LOC101060620 /// MAPK8IP1 (11723275_at) / RFU SPTSSB (11747773_x_at) / Fold change /veh SPTSSB (11747773_x_at) / RFU PRSS12 (11739890_at) / Fold change /veh PRSS12 (11739890_at) / RFU BIN1 (11741810_x_at) / Fold change /veh BIN1 (11741810_x_at) / RFU WNT11 (11732464_a_at) / Fold change /veh WNT11 (11732464_a_at) / RFU C10orf10 (11716521_a_at) / Fold change /veh C10orf10 (11716521_a_at) / RFU C5orf56 (11738089_at) / Fold change /veh C5orf56 (11738089_at) / RFU CYB561 (11721691_x_at) / Fold change /veh CYB561 (11721691_x_at) / RFU ANKRD19P (11752326_a_at) / Fold change /veh ANKRD19P (11752326_a_at) / RFU OR2T12 /// OR2T33 /// OR2T8 (11738714_s_at) / Fold change /veh OR2T12 /// OR2T33 /// OR2T8 (11738714_s_at) / RFU VCAN (11748164_a_at) / Fold change /veh VCAN (11748164_a_at) / RFU JSRP1 (11732532_at) / Fold change /veh JSRP1 (11732532_at) / RFU KRTAP10-11 (11738290_x_at) / Fold change /veh KRTAP10-11 (11738290_x_at) / RFU MYO3A (11730013_a_at) / Fold change /veh MYO3A (11730013_a_at) / RFU EBF3 (11725865_a_at) / Fold change /veh EBF3 (11725865_a_at) / RFU CAMK2N1 (11719241_x_at) / Fold change /veh CAMK2N1 (11719241_x_at) / RFU C5orf56 (11738088_a_at) / Fold change /veh C5orf56 (11738088_a_at) / RFU OLFML3 (11715873_a_at) / Fold change /veh OLFML3 (11715873_a_at) / RFU LOC100653217 /// NTM (11731650_a_at) / Fold change /veh LOC100653217 /// NTM (11731650_a_at) / RFU MAPK11 (11762145_a_at) / Fold change /veh MAPK11 (11762145_a_at) / RFU FIZ1 (11724087_x_at) / Fold change /veh FIZ1 (11724087_x_at) / RFU OASL (11726364_x_at) / Fold change /veh OASL (11726364_x_at) / RFU SOX15 (11748057_x_at) / Fold change /veh SOX15 (11748057_x_at) / RFU CD79A (11719716_a_at) / Fold change /veh CD79A (11719716_a_at) / RFU HIST1H1D (11736915_at) / Fold change /veh HIST1H1D (11736915_at) / RFU CASKIN2 (11723855_a_at) / Fold change /veh CASKIN2 (11723855_a_at) / RFU LOC730098 (11760151_x_at) / Fold change /veh LOC730098 (11760151_x_at) / RFU OR4N2 (11742367_at) / Fold change /veh OR4N2 (11742367_at) / RFU PRRT2 (11749266_a_at) / Fold change /veh PRRT2 (11749266_a_at) / RFU SNX32 (11753110_a_at) / Fold change /veh SNX32 (11753110_a_at) / RFU CDHR5 (11726645_a_at) / Fold change /veh CDHR5 (11726645_a_at) / RFU RCAN1 (11760418_a_at) / Fold change /veh RCAN1 (11760418_a_at) / RFU FAM167A (11723789_a_at) / Fold change /veh FAM167A (11723789_a_at) / RFU FAM26E (11764081_at) / Fold change /veh FAM26E (11764081_at) / RFU ISYNA1 (11749810_s_at) / Fold change /veh ISYNA1 (11749810_s_at) / RFU ACY1 (11761880_at) / Fold change /veh ACY1 (11761880_at) / RFU 11764098_at / Fold change /veh 11764098_at / RFU SAMD14 (11745864_x_at) / Fold change /veh SAMD14 (11745864_x_at) / RFU NPB (11741838_a_at) / Fold change /veh NPB (11741838_a_at) / RFU TMPRSS6 (11731388_a_at) / Fold change /veh TMPRSS6 (11731388_a_at) / RFU KRTAP10-2 (11738614_at) / Fold change /veh KRTAP10-2 (11738614_at) / RFU ARHGAP8 /// PRR5-ARHGAP8 (11727945_x_at) / Fold change /veh ARHGAP8 /// PRR5-ARHGAP8 (11727945_x_at) / RFU KRTAP5-7 /// NADSYN1 (11734609_at) / Fold change /veh KRTAP5-7 /// NADSYN1 (11734609_at) / RFU RASL12 (11751679_a_at) / Fold change /veh RASL12 (11751679_a_at) / RFU CDKN2B (11736163_a_at) / Fold change /veh CDKN2B (11736163_a_at) / RFU PRF1 (11729649_at) / Fold change /veh PRF1 (11729649_at) / RFU, ZNF638 /// ZNF638-IT1 / Fold change vs veh, ZNF638 /// ZNF638-IT1 / RFU, PANK3 / Fold change vs veh, PANK3 / RFU, SH3YL1 / Fold change vs veh, SH3YL1 / RFU, ZEB2 / Fold change vs veh, ZEB2 / RFU, NRIP1 / Fold change vs veh, NRIP1 / RFU, PTTG1IP / Fold change vs veh, PTTG1IP / RFU, CAPN2 / Fold change vs veh, CAPN2 / RFU, MED14 / Fold change vs veh, MED14 / RFU, SNORA58 / Fold change vs veh, SNORA58 / RFU, C1orf63 / Fold change vs veh, C1orf63 / RFU, LRRFIP1 / Fold change vs veh, LRRFIP1 / RFU, NDUFAF7 / Fold change vs veh, NDUFAF7 / RFU, SLC12A2 / Fold change vs veh, SLC12A2 / RFU, IBTK / Fold change vs veh, IBTK / RFU, ESF1 / Fold change vs veh, ESF1 / Fold change vs veh, TMEM50B / RFU, TAOK1 / Fold change vs veh, TAOK1 / RFU, ACBD3 / Fold change vs veh, ACBD3 / RFU, TMA16 / Fold change vs veh, TMA16 / RFU, RWDD3 / Fold change vs veh, RWDD3 / RFU, BCAT1 / Fold change vs veh, BCAT1 / RFU, EDEM3 / Fold change vs veh, EDEM3 / RFU, TMEM33 / Fold change vs veh, TMEM33 / RFU, WDR75 / Fold change vs veh, WDR75 / RFU, AHCTF1 / Fold change vs veh, AHCTF1 / RFU, TFRC / Fold change vs veh, TFRC / RFU, ZDHHC17 / Fold change vs veh, ZDHHC17 / RFU, NOM1 / Fold change vs veh, NOM1 / RFU, ARL8B / Fold change vs veh, ARL8B / RFU, ZBTB11 / Fold change vs veh, ZBTB11 / RFU, TAMM41 / Fold change vs veh, TAMM41 / RFU, KIAA1704 /// LOC100996395 / Fold change vs veh, KIAA1704 /// LOC100996395 / RFU, ING1 / Fold change vs veh, ING1 / RFU, TRMT61B / Fold change vs veh, TRMT61B / RFU, FUBP3 / Fold change vs veh, FUBP3 / RFU, TP53 / Fold change vs veh, TP53 / RFU, TNKS2 / Fold change vs veh, TNKS2 / RFU, ZFP14 / Fold change vs veh, ZFP14 / RFU, ACTR2 / Fold change vs veh, ACTR2 / RFU, PPP3R1 / Fold change vs veh, PPP3R1 / RFU, PIK3R1 / Fold change vs veh, PIK3R1 / RFU, HNRNPA1 / Fold change vs veh, HNRNPA1 / RFU, RNF170 / Fold change vs veh, RNF170 / RFU, ZNF28 / Fold change vs veh, ZNF28 / RFU, RNGTT / Fold change vs veh, RNGTT / RFU, OGT / Fold change vs veh, OGT / RFU, BRD1 / Fold change vs veh, BRD1 / RFU, MARS / Fold change vs veh, MARS / RFU, ZNF655 / Fold change vs veh, ZNF655 / RFU, FAHD1 / Fold change vs veh, FAHD1 / RFU, BDP1 / Fold change vs veh, BDP1 / RFU, LRRCC1 / Fold change vs veh, LRRCC1 / RFU, ARID1A / Fold change vs veh, ARID1A / RFU, ZNF146 / Fold change vs veh, ZNF146 / RFU, ZNF330 / Fold change vs veh, ZNF330 / RFU, GPN3 / Fold change vs veh, GPN3 / RFU, C9orf123 / Fold change vs veh, C9orf123 / RFU, N4BP2L2 / Fold change vs veh, N4BP2L2 / RFU, ARFIP1 / Fold change vs veh, ARFIP1 / RFU, FAM179B / Fold change vs veh, FAM179B / RFU, BCL10 / Fold change vs veh, BCL10 / RFU, UHRF1BP1L / Fold change vs veh, UHRF1BP1L / RFU, BET1 / Fold change vs veh, BET1 / RFU, CNOT2 / Fold change vs veh, CNOT2 / RFU, ZNF268 / Fold change vs veh, ZNF268 / Fold change vs veh, ZNF507 / RFU, DGCR2 / Fold change vs veh, DGCR2 / RFU, WDSUB1 / Fold change vs veh, WDSUB1 / Fold change vs veh, HSP90B1 /// MIR3652 / RFU, ADSS / Fold change vs veh, ADSS / RFU, GK / Fold change vs veh, GK / RFU, ZNF148 / Fold change vs veh, ZNF148 / RFU, TAF9 / Fold change vs veh, TAF9 / RFU, SLC1A5 / Fold change vs veh, SLC1A5 / RFU, SLMO2 / Fold change vs veh, SLMO2 / RFU, ABCC4 / Fold change vs veh, ABCC4 / RFU, LOC101060439 /// RAP1B / Fold change vs veh, LOC101060439 /// RAP1B / RFU, RFX7 / Fold change vs veh, RFX7 / RFU, GTPBP10 / Fold change vs veh, GTPBP10 / RFU, CNEP1R1 / Fold change vs veh, CNEP1R1 / RFU, BIVM-ERCC5 /// ERCC5 / Fold change vs veh, BIVM-ERCC5 /// ERCC5 / RFU, ILF3 / Fold change vs veh, ILF3 / RFU 11762660_at / Fold change /veh 11762660_at / RFU VCAN (11757783_s_at) / Fold change /veh VCAN (11757783_s_at) / RFU DDX43 (11728927_at) / Fold change /veh DDX43 (11728927_at) / RFU KRT8 (11758188_x_at) / Fold change /veh KRT8 (11758188_x_at) / RFU NKD1 (11759106_at) / Fold change /veh NKD1 (11759106_at) / RFU SRD5A1 (11742802_a_at) / Fold change /veh SRD5A1 (11742802_a_at) / RFU TPSAB1 /// TPSB2 (11721975_s_at) / Fold change /veh TPSAB1 /// TPSB2 (11721975_s_at) / RFU GSTM3 (11746129_a_at) / Fold change /veh GSTM3 (11746129_a_at) / RFU IL23R (11737362_x_at) / Fold change /veh IL23R (11737362_x_at) / RFU TMEM51 (11727254_a_at) / Fold change /veh TMEM51 (11727254_a_at) / RFU PIWIL2 (11732686_x_at) / Fold change /veh PIWIL2 (11732686_x_at) / RFU ORM1 (11744905_x_at) / Fold change /veh ORM1 (11744905_x_at) / RFU CCDC152 (11743942_at) / Fold change /veh CCDC152 (11743942_at) / RFU ECM1 (11717891_a_at) / Fold change /veh ECM1 (11717891_a_at) / RFU IL23R (11748794_a_at) / Fold change /veh IL23R (11748794_a_at) / RFU TNFAIP8L3 (11732012_x_at) / Fold change /veh TNFAIP8L3 (11732012_x_at) / RFU MBOAT4 (11741988_at) / Fold change /veh MBOAT4 (11741988_at) / RFU 11764193_at / Fold change /veh 11764193_at / RFU TMEM53 (11763286_at) / Fold change /veh TMEM53 (11763286_at) / RFU MAGEB2 (11727129_at) / Fold change /veh MAGEB2 (11727129_at) / RFU TMEM200A (11744735_a_at) / Fold change /veh TMEM200A (11744735_a_at) / RFU CCDC152 (11751479_a_at) / Fold change /veh CCDC152 (11751479_a_at) / RFU FAM211A (11726209_a_at) / Fold change /veh FAM211A (11726209_a_at) / RFU RGS16 (11746705_a_at) / Fold change /veh RGS16 (11746705_a_at) / RFU VCAN (11755009_s_at) / Fold change /veh VCAN (11755009_s_at) / RFU RHOB (11743442_s_at) / Fold change /veh RHOB (11743442_s_at) / RFU RGS16 (11720943_a_at) / Fold change /veh RGS16 (11720943_a_at) / RFU RGS16 (11720944_at) / Fold change /veh RGS16 (11720944_at) / RFU, VPS4B / Fold change vs veh, VPS4B / RFU, CREB1 / Fold change vs veh, CREB1 / RFU, DNAJC13 / Fold change vs veh, DNAJC13 / RFU, GNAQ / Fold change vs veh, GNAQ / RFU, CDK5R1 / Fold change vs veh, CDK5R1 / RFU, ZRANB3 / Fold change vs veh, ZRANB3 / RFU, CUL4A / Fold change vs veh, CUL4A / RFU, CCNY / Fold change vs veh, CCNY / RFU, UFL1 / Fold change vs veh, UFL1 / RFU, COG3 / Fold change vs veh, COG3 / RFU, DIAPH2 / Fold change vs veh, DIAPH2 / RFU, SKA2 / Fold change vs veh, SKA2 / RFU, AFF3 / Fold change vs veh, AFF3 / RFU, LMF1 / Fold change vs veh, LMF1 / RFU, IPO11 / Fold change vs veh, IPO11 / RFU, DFFB / Fold change vs veh, DFFB / RFU, FOXP1 / Fold change vs veh, FOXP1 / RFU, CARD8 / Fold change vs veh, CARD8 / RFU, STRN3 / Fold change vs veh, STRN3 / RFU, ADK / Fold change vs veh, ADK / RFU, RASSF2 / Fold change vs veh, RASSF2 / RFU, WIPF1 / Fold change vs veh, WIPF1 / RFU, LARP1B / Fold change vs veh, LARP1B / RFU, RASA1 / Fold change vs veh, RASA1 / RFU, RB1 / Fold change vs veh, RB1 / RFU, PPFIA1 / Fold change vs veh, PPFIA1 / RFU, MAT2A / Fold change vs veh, MAT2A / RFU, CCT5 / Fold change vs veh, CCT5 / RFU, WDR92 / Fold change vs veh, WDR92 / RFU, CUX1 / Fold change vs veh, CUX1 / RFU, TTC7A / Fold change vs veh, TTC7A / RFU, TMEM135 / Fold change vs veh, TMEM135 / RFU, DEPTOR / Fold change vs veh, DEPTOR / RFU, CPM / Fold change vs veh, CPM / RFU, DNAJB6 / Fold change vs veh, DNAJB6 / RFU, CACNA2D3 / Fold change vs veh, CACNA2D3 / RFU, DTX4 / Fold change vs veh, DTX4 / RFU, TFCP2 / Fold change vs veh, TFCP2 / RFU, GMCL1 /// GMCL1P1 / Fold change vs veh, GMCL1 /// GMCL1P1 / RFU, AEBP2 / Fold change vs veh, AEBP2 / RFU, SNHG1 /// SNORD22 /// SNORD25 /// SNORD26 /// SNORD27 /// SNORD28 /// SNORD29 /// SNORD31 / Fold change vs veh, SNHG1 /// SNORD22 /// SNORD25 /// SNORD26 /// SNORD27 /// SNORD28 /// SNORD29 /// SNORD31 / Fold change (Aza/veh), C12orf56 (ProbeSet 11735607_a_at) / Fold change (ACY-1035/veh), C12orf56 (ProbeSet 11735607_a_at) / Fold change (Aza/veh), FGFR1OP (ProbeSet 11751329_s_at) / Fold change (ACY-1035/veh), FGFR1OP (ProbeSet 11751329_s_at) / Fold change (Aza/veh), VPS36 (ProbeSet 11739960_a_at) / Fold change (ACY-1035/veh), VPS36 (ProbeSet 11739960_a_at) / RFU SYPL1 (11715823_x_at) / Fold change /veh SYPL1 (11715823_x_at) / RFU IGFBP7 (11715501_s_at) / Fold change /veh IGFBP7 (11715501_s_at) / RFU REEP3 (11722064_at) / Fold change /veh REEP3 (11722064_at) / RFU IGLL1 (11728026_x_at) / Fold change /veh IGLL1 (11728026_x_at): dose or concentration left out as unconfirmed
Details: MV-4-11 cells, 48 hours

Nc1ccc(-c2cccs2)cc1NC(=O)c1ccc2c(c1)cc(C1CC1)n2CCN1CCOCC1 [ACY-1035]
Fold change /veh FAM167A (11723789_a_at): 1.14
